Data from patent US5756478A, “Method for reducing toxicity of D-nucleoside analogs with L-nucleosides” (priority 1996, dated 1998).
Several values for one entry are separate records, joined by “and”; a condition that tells them apart may be missing. Equal values may be shown once. Entries after “also recorded” stand apart in the source; their conditions may differ. Read-outs that look alike come from different tables or passages of the source.

Key:
HIV-1IIIB [1] = experiment: Anti-HIV combination of D- and L-nucleosides in HIV-1IIIB infected MT-2 cells (isobolograms); assay type: cell-based; settings: for Effect of L-nucleoside on ID50 of co-administered D-nucleoside: with AZT, D4T, ddC or DDI
Procedure: (§1) The following anti-HIV drugs were tested in combination with the L-nucleosides β-L-5-fluoro-2',b 3'-dideoxycytidine [β-L-FddC or L(-)FddC], β-L-5-fluoro-2',3'-dideoxy-2',3'-didehydrocytidine [β-L-Fd4C or L(-)Fd4C], β-L-5-fluoro-2',3'-dideoxy-3'-thiacytidine [L(-)FTC] and β-L-2',3'-dideoxy-3'-thiacytidine [L(-)SddC or 3TC]: 3'-azido-3'deoxythymidine (AZT) as well as the β-D-2',3'-dideoxynucleosides, for example, β-D-2',3'-dideoxycytidine (ddC), β-D-2',3'-dideoxyadenosine, β-D-2',3'-dideoxyinosine (DDI) and β-D-2',3'-didehydro-3'-deoxy-thymidine (D4T). β-L-FddC and β-L-Fd4C was obtained following the method of Lin, et al., J. Med. Chem., 37, no. 6 (1994). L(-)FTC and L(-)SddC were prepared by standard literature procedures. See, for example, Jeong, et al. J. Med. Chem., 36, 181 (1993). AZT was obtained from Sigma Chemical Co., St. Louis, Mo., USA. ddC was obtained from Aldrich Chemical Co., Milwaukke, Wis. USA. DDI and D4T were obtained from Bristol-Myers Co., Wallingford, Conn., USA.
(§2) The above-mentioned drugs were tested using MT-2 cells infected with HIV-1IIIB as described by JW Mellers, et al., Molecular Pharm. 41, 446-451 (1991) with some modification. Briefly, triplicate wells of 96-well plates containing 1×10^4 MT-2 cells were infected with HIV-1IIIB at a multiplicity of infection (MOI) of 0.1 TCID50 per cell (TCID50 - 50% tissue culture infective dose). Serial dilutions of drug were added immediately after infection. Cell viability was quantitated 5 days after infection by the MTT-dye reduction model (Larder, et al. Antimicrob. Agents Chemother. 34, 436-441, 1990). The percentage of protection was calculated with the formula [(a-b/c-b)×100], in which a=the A595 of drug-treated, virus-infected well, b=A595 of no-drug infected wells, and c=A595 of no-drug, uninfected wells.
Isobolograms (FIGS. 1-2) were plotted as the percent change in the ID50 of β-L-FddC (L(-)FddC), L(-)FTC, L(-)SddC (FIGS. 1 and 2) β-L-Fd4C (L(-)Fd4C) at various concentrations in combination with AZT, D4T, ddC or DDI at varying concentations on the x-axis and vice versa on the y-axis. Isobolograms (FIG. 3) were plotted as the percent change in the ID50 of β-L-Fd4C (L(-)Fd4C) at various concentrations in combination with AZT or D4T at varying concentrations on the x-axis and vice-versa on the y-axis.

[2] = test system: Mitochondrial DNA (mtDNA); experiment: Mitochondrial DNA (mtDNA) content of CEM cells (slot blot); assay type: cell-based, Human; settings: with AZT, ddC, DDI or D4T
Procedure: To determine the effect of nucleoside analogues on mtDNA content, CEM cells were treated with various concentrations of drug 8 days with medium and drug changes every 2 days. Cells (1×10^5)are washed twice with phosphate buffered […] (PBS) and resuspended in 25 mM Tris (pH 8.0) and 1 mM EDTA. The cells are lysed by 5 cycles of freeze/thaw. RNAase A (DNase free, final concentration of 0.1 mg/ml) is added to the cel ysate and incubated for 3 hours at 50° C. The lysate is brought to a final concentration of 10×SSC, boiled for 10 min., and applied to a nylon membrane presoaked in 2X SSC using a slot blot apparatus. […] All blots are normalized for loading using an Alu probe (ATCC). Blots are exposed to X-ray film and quantitated using a Molecular Dynamics Personal Densitometer SI.

HIV-1IIIB [3] = experiment: Anti-HIV activity: protection of MT-2 cells infected with HIV-1IIIB (MTT-dye reduction); assay type: cell-based; settings: Human immunodeficiency virus 1, MT2, 120 h
Procedure: as §1, §2

[4] = test system: CEM, a Human T-type lymphoblast tumor cell line; experiment: Cell growth inhibition of CEM cells by D-nucleosides with or without L-nucleosides; assay type: cell-based
Text: CEM, a Human T-type lymphoblast tumor cell line was used for this study. […] At the end of four days after the addition of the drug, the cell number was estimated by hemocytometer. […] The data, presented below in Table 1-3, are normalized against the control. The parenthetical values represent the expected effect the combined agents should have on cell growth.

[5] = Homo sapiens, CCRF-CEM, 96 h, single agent, 1.0 uM, day 4, read-out: Day 4 Cell Growth - % of Control

SMILES: Nc1nc(=O)n([C@@H]2CS[C@H](CO)O2)cc1F [L(-)FTC, β-L-5-fluoro-2',3'-dideoxy-3'-thiacytidine]
- Effect of L-nucleoside on ID50 of co-administered D-nucleoside (HIV-1IIIB [1]): reduces the ID50 value of AZT, ddC, DDI and D4T; also recorded: decreases the ID50 of a co-administered D-nucleoside and vice versa
- Effect of L-nucleoside on D-nucleoside inhibition of mitochondrial DNA synthesis [2]: could prevent the effect of AZT, ddC, DDI or D4T in inhibiting the synthesis of mitochondrial DNA synthesis
- IC50 (HIV-1IIIB [3]; MT-2 cells, HIV-1IIIB, MOI 0.1 TCID50 per cell, 5 days, unit inferred, read-out: ID50 (the source's name)): 600 nM
- activity at 0.1 µM ([4]; Homo sapiens, CCRF-CEM, 96 h, single agent, 0.1 uM, day 4, read-out: Day 4 Cell Growth - % of Control): 104%
- activity at 1 µM [4, 5]: 87%
- activity at 10 µM ([4]; Homo sapiens, CCRF-CEM, 96 h, single agent, 10 uM, day 4, read-out: Day 4 Cell Growth - % of Control): 76%
- Day 4 Cell Growth - % of Control ([4]; single agent, 1.0 uM, listed as (-) FTC, 5760 min): 84 % of Control
- Day 4 Cell Growth - % of Control ([4]; single agent, 1.0 uM, listed as FTC, 5760 min): 87 % of Control

SMILES: Nc1nc(=O)n(C2CCC(CO)O2)cc1F (single isomer, unassigned) [β-L-FddC, β-L-5-fluoro-2',3'-dideoxycytidine]
- Effect of L-nucleoside on ID50 of co-administered D-nucleoside (HIV-1IIIB [1]): reduces the ID50 value of AZT, ddC, DDI and D4T; also recorded: decreases the ID50 of a co-administered D-nucleoside and vice versa
- Effect of L-nucleoside on D-nucleoside inhibition of mitochondrial DNA synthesis [2]: could prevent the effect of AZT, ddC, DDI or D4T in inhibiting the synthesis of mitochondrial DNA synthesis; also recorded: appears to inhibit the ability of the co-administered D-nucleoside to inhibit the synthesis of mitochondrial DNA
- IC50 (HIV-1IIIB [3]; MT-2 cells, HIV-1IIIB, MOI 0.1 TCID50 per cell, 5 days, read-out: ID50 (the source's name)): 450 nM
- activity at 1 µM [4, 5]: 84%

SMILES: Cc1cn([C@H]2C=C[C@@H](CO)O2)c(=O)[nH]c1=O [D4T, β-D-2',3'-didehydro-3'-deoxy-thymidine]
- Nature of the anti-HIV combination effect with L-nucleosides (ID50) (HIV-1IIIB [1]; D-nucleoside co-administered with β-L-FddC, L(-)FTC, L(-)SddC or β-L-Fd4C): synergistically; also recorded: synergistic
- IC50 (HIV-1IIIB [3]; read-out: ID50): 6000 nM
- Day 4 Cell Growth - % of Control ([4]; 0.3 uM, in combination with 1 uM 3TC): 94 % of Control
- Day 4 Cell Growth - % of Control ([4]; 0.3 uM, in combination with 1 uM (-) FTC): 84 % of Control
- Day 4 Cell Growth - % of Control ([4]; 0.3 uM, in combination with 1 uM β-L-FddC): 86 % of Control
- Day 4 Cell Growth - % of Control ([4]; 3.0 uM, in combination with 1 uM 3TC): 86 % of Control
- Day 4 Cell Growth - % of Control ([4]; 3.0 uM, in combination with 1 uM (-) FTC): 75 % of Control
- Day 4 Cell Growth - % of Control ([4]; 3.0 uM, in combination with 1 uM β-L-FddC): 75 % of Control
- Day 4 Cell Growth - % of Control ([4]; 30 uM, in combination with 1 uM 3TC): 73 % of Control
- Day 4 Cell Growth - % of Control ([4]; 30 uM, in combination with 1 uM (-) FTC): 65 % of Control
- Day 4 Cell Growth - % of Control ([4]; 30 uM, in combination with 1 uM β-L-FddC): 68 % of Control
- activity at 0.3 µM ([4]; Homo sapiens, CCRF-CEM, 96 h, single agent, 0.3 uM, day 4, read-out: Day 4 Cell Growth - % of Control): 98%
- activity at 3 µM ([4]; Homo sapiens, CCRF-CEM, 96 h, single agent, 3.0 uM, day 4, read-out: Day 4 Cell Growth - % of Control): 84%
- activity at 30 µM ([4]; Homo sapiens, CCRF-CEM, 96 h, single agent, 30 uM, day 4, read-out: Day 4 Cell Growth - % of Control): 70%
- Day 4 Cell Growth - % of Control, expected effect of the combined agents (parenthetical) ([4]; 0.3 uM with 1 uM β-L-FddC): 82 % of Control
- Day 4 Cell Growth - % of Control, expected effect of the combined agents (parenthetical) ([4]; 3.0 uM with 1 uM β-L-FddC): 71 % of Control
- Day 4 Cell Growth - % of Control, expected effect of the combined agents (parenthetical) ([4]; 30 uM with 1 uM β-L-FddC): 59 % of Control
- Day 4 Cell Growth - % of Control ([4]; single agent, 0.3 uM, 5760 min): 89 % of Control
- Day 4 Cell Growth - % of Control ([4]; single agent, 3.0 uM, 5760 min): 80 % of Control
- Day 4 Cell Growth - % of Control ([4]; single agent, 30 uM, 5760 min): 65 % of Control and 64 % of Control
